Data taken from US20230398130A1, “METHODS AND COMPOSITIONS FOR DIFFERENTIATING STEM CELLS” (Massachusetts Institute of Technology, priority 2020, published 2023).

Tests used:
[1] = tested on: ISC-enriched organoids; test: Primary screen, 384-well 2.5-D organoid differentiation (ENR+CD, 6 days): basal lysozyme secretion (LYZ.NS); format: cell-based, murine; conditions: primary screen; for Dose.FC.LYZ.NS (log 2 fold change): vs plate median; for Dose.FC.LYZ.NS: ENR+CD 6 days, FC vs plate median; for Z.LYZ.NS: standard z score of FC
Text: (§1) High-throughput screening.

[2] = tested on: ISC-enriched organoids; test: Primary screen, 384-well 2.5-D organoid differentiation (ENR+CD, 6 days): carbachol-induced lysozyme secretion (LYZ.S); format: cell-based, murine; conditions: primary screen; for Dose.FC.LYZ.S (log 2 fold change): vs plate median; for Dose.FC.LYZ.S: ENR+CD 6 days, FC vs plate median
Text: as §1

[3] = tested on: ISC-enriched organoids; test: Primary screen, 384-well 2.5-D organoid differentiation (ENR+CD, 6 days, Target Selective Inhibitor Library, vs whole-plate median): ATP (CellTiter-Glo 3D, CTG); conditions: primary screen; for Dose.FC.CTG (log 2 fold change): vs plate median; for Dose.FC.CTG: ENR+CD 6 days, FC vs plate median; for Z.CTG: standard z score of FC

Row | SMILES | Z.LYZ.NS (standard z score) ([1]; Dose 0.08 uM) | Dose.FC.LYZ.NS (log 2 fold change) ([1]; Dose 0.08 uM) | Z.LYZ.NS (standard z score) ([1]; Dose 0.40 uM) | Dose.FC.LYZ.NS (log 2 fold change) ([1]; Dose 0.40 uM) | Z.LYZ.NS (standard z score) ([1]; Dose 2.00 uM) | Dose.FC.LYZ.NS (log 2 fold change) ([1]; Dose 2.00 uM) | Z.LYZ.NS (standard z score) ([1]; Dose 10.00 uM) | Dose.FC.LYZ.NS (log 2 fold change) ([1]; Dose 10.00 uM) | Dose.FC.LYZ.S (log 2 fold change) ([2]; Dose 0.08 uM) | Dose.FC.LYZ.S (log 2 fold change) ([2]; Dose 0.40 uM) | Dose.FC.LYZ.S (log 2 fold change) ([2]; Dose 2.00 uM) | Dose.FC.LYZ.S (log 2 fold change) ([2]; Dose 10.00 uM) | Z.CTG (standard z score) ([3]; Dose 0.08 uM) | Dose.FC.CTG (log 2 fold change) ([3]; Dose 0.08 uM) | Z.CTG (standard z score) ([3]; Dose 0.40 uM) | Dose.FC.CTG (log 2 fold change) ([3]; Dose 0.40 uM) | Z.CTG (standard z score) ([3]; Dose 2.00 uM) | Dose.FC.CTG (log 2 fold change) ([3]; Dose 2.00 uM) | Z.CTG (standard z score) ([3]; Dose 10.00 uM) | Dose.FC.CTG (log 2 fold change) ([3]; Dose 10.00 uM) | also measured
1 | Cc1cn([C@H]2C=C[C@@H](CO)O2)c(=O)[nH]c1=O [Stavudine (d4T)] | 0.620 | 0.071 | 0.027 | 0.003 | 0.074 | 0.009 | −0.828 | −0.095 | 0.134 | 0.001 | −0.003 | −0.120 | 0.226 | 0.095 | 0.351 | 0.147 | 0.179 | 0.075 | −0.179 | −0.075 | –
2 | Cc1nnc(C(=O)NC(C)(C)c2nc(C(=O)NCc3ccc(F)cc3)c(O)c(=O)n2C)o1 [Raltegravir (MK-0518)] | 1.627 | 0.187 | 0.302 | 0.035 | 0.254 | 0.029 | 0.366 | 0.042 | 0.137 | 0.037 | 0.122 | 0.183 | 0.258 | 0.108 | 0.224 | 0.094 | 0.471 | 0.197 | 0.407 | 0.170 | –
3 | NC(=O)Nc1cc(-c2cccc(F)c2)sc1C(=O)N[C@H]1CCCNC1 [AZD7762] | – | – | – | – | – | – | – | – | – | – | – | – | – | – | – | – | – | – | – | – | Dose.FC.LYZ.NS ([1]; dose 0.08 uM): 0.010 log 2 fold change; Z.LYZ.NS ([1]; dose 0.08 uM): 0.084; Dose.FC.LYZ.NS ([1]; dose 0.40 uM): −0.159 log 2 fold change; Z.LYZ.NS ([1]; dose 0.40 uM): −1.385; Dose.FC.LYZ.NS ([1]; dose 2.00 uM): −0.211 log 2 fold change; Z.LYZ.NS ([1]; dose 2.00 uM): −1.835; Dose.FC.LYZ.NS ([1]; dose 10.00 uM): −0.220 log 2 fold change; Z.LYZ.NS ([1]; dose 10.00 uM): −1.917; Dose.FC.LYZ.S ([2]; dose 0.08 uM): 0.019 log 2 fold change; Dose.FC.LYZ.S ([2]; dose 0.40 uM): −0.251 log 2 fold change; Dose.FC.LYZ.S ([2]; dose 2.00 uM): −0.342 log 2 fold change; Dose.FC.LYZ.S ([2]; dose 10.00 uM): −0.369 log 2 fold change; Dose.FC.CTG ([3]; dose 0.08 uM): 0.054 log 2 fold change; Z.CTG ([3]; dose 0.08 uM): 0.129; Dose.FC.CTG ([3]; dose 0.40 uM): −0.384 log 2 fold change; Z.CTG ([3]; dose 0.40 uM): −0.917; Dose.FC.CTG ([3]; dose 2.00 uM): −0.804 log 2 fold change; Z.CTG ([3]; dose 2.00 uM): −1.920; Dose.FC.CTG ([3]; dose 10.00 uM): −1.361 log 2 fold change; Z.CTG ([3]; dose 10.00 uM): −3.251
